According to patent publication US5310762A, “Medicaments” (Burroughs Wellcome Co., priority 1988, dated 1994):

How the values were obtained:
Pneumocystis carinii = experiment: Activity against Pneumocystis carinii: treatment of latent infection in dexamethasone-treated rats; assay type: in vivo; settings: weeks 5-7; for SCORE 2 (number of rats): 2+: focal areas of pneumonitis surrounded by 10 to 25 h.p.f. of normal lung; for SCORE 3 (number of rats): 3+: lung diffusely and extensively involved; for SCORE 4 (number of rats): score 4 not defined; for SCORE 0 (number of rats): score none: no organism seen; for SCORE 1 (number of rats): 1+: cysts sparsely distributed, less than one per 25 h.p.f.
Experimental: Groups of 10 rats were treated with dexamethasone to allow latent Pneumocystis carinii infection to develop. Tetracycline was also administered to protect against bacterial infections. […] In parallel with each test compound, Celacol was administered to one group of rats (also treated with dexamethasone and tetracycline) as a control. At the end of the test period the animals were sacrificed and autopsies carried out. The lungs were removed and the right lung bisected. An imprint was made onto microscope slides and stained with toluidine blue. One half of the lung was placed in formalin, processed in paraffin blocks, sectioned and stained by the Gomori methanamine silver nitrate method. After autopsy the extent of P. carinii pneumonitis was scored under coded study as none if no organism seen; 1+ if P. carinii cysts seen sparsely distributed with less than one per 25 high power field (h.p.f.); 2+ if focal areas of P. carinii pneumonitis surrounded by 10 to 25 h.p.f. of normal lung and 3+ if lung diffusely and extensively involved with organisms in almost all h.p.f.s.

Water-solubility = assay type: physicochemical; settings: as compared with the corresponding compound wherein R13 is hydroxy
[1] = system: Pneumocystis carinii pneumonia; settings: AIDS patients; Wofsy, Antimicrobial Agents Annual 1986; cited from earlier work
[2] = human, in vivo; cited from earlier work

| Compound | % INFECTED (Pneumocystis carinii; 25 mg/kg/day oral) | NO. INFECTED/NO. EXAMINED (Pneumocystis carinii; 25 mg/kg/day oral) | SCORE 2 (number of rats) (Pneumocystis carinii; 25 mg/kg/day oral) | SCORE 3 (number of rats) (Pneumocystis carinii; 25 mg/kg/day oral) | SCORE 4 (number of rats) (Pneumocystis carinii; 25 mg/kg/day oral) | SCORE 0 (number of rats) (Pneumocystis carinii; 25 mg/kg/day oral) | % INFECTED (Pneumocystis carinii; 50 mg/kg/day oral) | NO. INFECTED/NO. EXAMINED (Pneumocystis carinii; 50 mg/kg/day oral) | SCORE 1 (number of rats) (Pneumocystis carinii; 50 mg/kg/day oral) | SCORE 2 (number of rats) (Pneumocystis carinii; 50 mg/kg/day oral) | SCORE 3 (number of rats) (Pneumocystis carinii; 50 mg/kg/day oral) | SCORE 4 (number of rats) (Pneumocystis carinii; 50 mg/kg/day oral) | SCORE 0 (number of rats) (Pneumocystis carinii; 50 mg/kg/day oral) | % INFECTED (Pneumocystis carinii; 100 mg/kg/day oral) | NO. INFECTED/NO. EXAMINED (Pneumocystis carinii; 100 mg/kg/day oral) | SCORE 1 (number of rats) (Pneumocystis carinii; 100 mg/kg/day oral) | SCORE 2 (number of rats) (Pneumocystis carinii; 100 mg/kg/day oral) | SCORE 3 (number of rats) (Pneumocystis carinii; 100 mg/kg/day oral) | SCORE 4 (number of rats) (Pneumocystis carinii; 100 mg/kg/day oral) | SCORE 0 (number of rats) (Pneumocystis carinii; 100 mg/kg/day oral) | also measured |
| --- | --- | --- | --- | --- | --- | --- | --- | --- | --- | --- | --- | --- | --- | --- | --- | --- | --- | --- | --- | --- | --- |
| O=C1C(Cl)=C(C2CCC(c3ccc(Cl)cc3)CC2)C(=O)c2ccccc21 (stereo not shown) [A, 2-[4-(4-chlorophenyl)cyclohexyl]-3-chloro-1,4-naphthoquinone] | 100% | 14/14 | 6 | 3 | 0 | 0 | 100% | 15/15 | 8 | 5 | 2 | 0 | 0 | 73% | 11/15 | 6 | 4 | 1 | 0 | 4 | SCORE 1 (number of rats) (Pneumocystis carinii; oral): 5 |
| CC(C)(C)C1CCC(CC2=C(O)C(=O)c3ccccc3C2=O)CC1 (stereo not shown) [C, 2-(4-t-butylcyclohexylmethyl)-3-hydroxy-1,4-naphthoquinone] | 93% | 13/14 | 2 | 4 | 4 | 1 | 100% | 14/14 | 2 | 6 | 4 | 2 | 0 | 92% | 12/13 | 4 | 2 | 6 | 0 | 1 | SCORE 1 (number of rats) (Pneumocystis carinii; oral): 3 |
| CC(C)(C)C1CCC(C2=C(O)C(=O)c3ccccc3C2=O)CC1 (stereo not shown) [Compound B, 2-(4-t-butylcyclohexyl)-3-hydroxy-1,4-naphthoquinone] | 100% | 15/15 | 7 | 1 | 0 | 0 | 93% | 13/14 | 8 | 4 | 1 | 0 | 1 | 80% | 12/15 | 8 | 3 | 0 | 1 | 3 | SCORE 1 (number of rats) (Pneumocystis carinii; oral): 7 |
| CC(=O)OC1=C([C@H]2CC[C@H](c3ccc(Cl)cc3)CC2)C(=O)c2ccccc2C1=O [Example 5, 2-Acetoxy-3-[trans-4-(4-chlorophenyl)cyclohexyl]-1,4-naphthoquinone] | – | – | – | – | – | – | – | – | – | – | – | – | – | – | – | – | – | – | – | – | water-solubility (Water-solubility): improved water-solubility |
| N=C(N)c1ccc(OCCCCCOc2ccc(C(=N)N)cc2)cc1 [pentamidine] | – | – | – | – | – | – | – | – | – | – | – | – | – | – | – | – | – | – | – | – | % effective [1]: 50-70%; incidence of adverse reactions [2]: around 50% |
| trimethoprim-sulphamethoxazole | – | – | – | – | – | – | – | – | – | – | – | – | – | – | – | – | – | – | – | – | % effective [1]: 50-70% |
